{"source": "patent US10206886B2", "about": "“Lipid nanoparticles for wound healing” (Praxis Biopharma Research Institute, priority 2013, dated 2019)", "tested_on": "HUVEC cells (Human Umbilical Vein Endothelial Cells)", "experiment": "Proliferation assay with LL37-loaded nanoparticles (CCK-8)", "format": "cell-based", "conditions": "0.5 and 0.1 μg/ml LL37, after 48 hours, FIG. 6"}
{"substance": "free LL37: Cathelicidin antimicrobial peptide LL37, SEQ ID NO 1 (LLGDFFRKSKEKIGKEFKRIVQRIKDFLRNLVPRTES), non-encapsulated", "values": [{"measurement": "cell proliferation compared with control groups", "result": "greater cell proliferation"}]}
